Columns and labels:
in vitro = conditions: chlorocebus sabaeus, Vero E6 (Vero C1008) cells
SARS-CoV-2 [1] = assay: microbe, parasite or virus in culture; conditions: Severe acute respiratory syndrome coronavirus 2, Vero C1008, 48 h
SARS-CoV-2 [2] = assay: microbe, parasite or virus in culture; assay type: functional, organism-based, Chlorocebus sabaeus, Vero C1008; conditions: Severe acute respiratory syndrome coronavirus 2, Vero C1008, 48 h

| Structure (SMILES) | CC50 at 48 h (in vitro; CC50) | CC50 at 48 h (in vitro; pCC50) | IC50 (SARS-CoV-2 [1]) | IC50 (SARS-CoV-2 [1]; read-out: pIC50 (converted)) | IC50 (SARS-CoV-2 [2]; read-out: IC50) | IC50 (SARS-CoV-2 [2]; read-out: pIC50 (converted)) |
| --- | --- | --- | --- | --- | --- | --- |
| CC1(C)CCC(c2ccc(Cl)cc2)=C(CN2CCN(c3ccc(C(=O)NS(=O)(=O)c4ccc(N[C@H](CCN5CCOCC5)CSc5ccccc5)c(S(=O)(=O)C(F)(F)F)c4)cc3)CC2)C1 [NAVITOCLAX] | 4.73 µM | 4.68 µM | > 100 µM | > 100 µM | > 100 µM | > 100 µM |
| C[C@H](Oc1cc(-c2cnn(C3CCNCC3)c2)cnc1N)c1c(Cl)ccc(F)c1Cl | 4.42 µM | 4.37 µM | 6.76 µM | 6.76 µM | ~4.47 µM | ~4.47 µM |
| CCCSc1ccccc1N1CCN(CCCCn2c(=O)[nH]c3ccccc3c2=O)CC1 [TIOPERIDONE] | 7.24 µM | 7.24 µM | 9.12 µM | 9.12 µM | > 100 µM | > 100 µM |
| CC(CN(C)C)CN1c2ccccc2Sc2ccccc21 (configuration not stated) | 21.4 µM | 21.4 µM | 17.4 µM | 17.4 µM | > 25.1 µM | > 25.1 µM |
| CCCCc1oc2ccc(NS(C)(=O)=O)cc2c1C(=O)c1ccc(OCCCN(CCCC)CCCC)cc1 [DRONEDARONE] | 3.85 µM | 3.8 µM | ~3.02 µM | ~3.02 µM | > 100 µM | > 100 µM |
| COc1ccc2c(c1)c(CC(=O)O)c(C)n2C(=O)c1ccc(Cl)cc1 [INDOMETHACIN] | > 100 µM | > 100 µM | > 100 µM | > 100 µM | > 100 µM | > 100 µM |
| Clc1ccc(C(c2ccccc2)N2CCN(C/C=C/c3ccccc3)CC2)cc1 (configuration not stated) [CLOCINIZINE] | 21.9 µM | 21.9 µM | > 100 µM | > 100 µM | 20.9 µM | 20.9 µM |
| COc1ccccc1N1CCN(CCCCNC(=O)c2ccc3ccccc3c2)CC1 [BP-897] | 30.2 µM | 30.2 µM | > 25.1 µM | > 25.1 µM | > 25.1 µM | > 25.1 µM |
| c1ccc2c(c1)Sc1ccccc1N2CC1CN2CCC1CC2 (configuration not stated) [MEQUITAZINE] | 7.76 µM | 7.76 µM | 7.76 µM | 7.76 µM | > 100 µM | > 100 µM |
| C[C@H]1[C@H]2CC[C@H]3[C@@H]4CC=C5C[C@@H](N(C)C)CC[C@]5(C)[C@H]4CC[C@]23CN1C [CONESSINE] | 34.7 µM | 34.7 µM | 12 µM | 12 µM | > 25.1 µM | > 25.1 µM |
| CN1CCCN(C(c2ccccc2)c2ccc(Cl)cc2)CC1 (configuration not stated) [HOMOCHLORCYCLIZINE] | 21.1 µM | 20.9 µM | > 20 µM | > 20 µM | > 25.1 µM | > 25.1 µM |
| CO[C@H]1CC[C@H](n2c([C@@H]3CCCC(=O)N3c3ccc(F)c(F)c3)nc3cc(-c4c(C)noc4C)ccc32)CC1 [INOBRODIB] | 3.16 µM | 3.16 µM | > 100 µM | > 100 µM | > 100 µM | > 100 µM |
| CCC(=O)c1ccc2c(c1)N(CCCN1CCN(CCO)CC1)c1ccccc1S2 [CARPHENAZINE] | 6.31 µM | 6.31 µM | > 100 µM | > 100 µM | > 100 µM | > 100 µM |
| NC(CO)(CO)CCc1ccc(Sc2cccc(OCc3ccccc3)c2)cc1Cl [MOCRAVIMOD] | 3.06 µM | 3.02 µM | 3.31 µM | 3.31 µM | > 100 µM | > 100 µM |
| COC(=O)N[C@H](C(=O)N1CCC[C@H]1c1nc(-c2ccc3cc(-c4ccc5[nH]c([C@@H]6CCCN6C(=O)[C@@H](NC(=O)OC)C(C)C)nc5c4)ccc3c2)c[nH]1)C(C)C | 12.7 µM | 12.6 µM | > 100 µM | > 100 µM | > 100 µM | > 100 µM |
| Cc1ccc(C(=O)N(CCCN)[C@@H](c2oc3cc(Cl)ccc3c(=O)c2Cc2ccccc2)C(C)C)cc1 [SB-743921] | 2.63 µM | 2.63 µM | > 50.1 µM | > 50.1 µM | > 50.1 µM | > 50.1 µM |
| CC[C@H](C(=O)[C@H](C)[C@@H](O)[C@H](C)CCc1ccc(C)c(O)c1C(=O)O)[C@@H]1O[C@@](CC)([C@H]2CC[C@](O)(CC)[C@@H](C)O2)C[C@@H]1C | ~5.37 µM | ~5.37 µM | > 0.631 µM | > 0.631 µM | 1.07 µM | 1.07 µM |
| CCC(CC)COC(=O)[C@H](C)N[P@](=O)(OC[C@H]1O[C@@](C#N)(c2ccc3c(N)ncnn23)[C@H](O)[C@@H]1O)Oc1ccccc1 | 95.5 µM | 95.5 µM | ~4.64 µM | ~4.68 µM | ~2.6 µM | ~2.57 µM |
| NC(=O)C(c1ccccc1)(c1ccccc1)[C@@H]1CCN(CCc2ccc3c(c2)CCO3)C1 [DARIFENACIN] | 56.2 µM | 56.2 µM | > 25.1 µM | > 25.1 µM | > 100 µM | > 100 µM |

| Structure (SMILES) | CC50 at 48 h (in vitro; CC50) | CC50 at 48 h (in vitro; pCC50) | IC50 (SARS-CoV-2 [1]) | IC50 (SARS-CoV-2 [1]; read-out: pIC50 (converted)) | IC50 (SARS-CoV-2 [2]; read-out: IC50) | IC50 (SARS-CoV-2 [2]; read-out: pIC50 (converted)) |
| --- | --- | --- | --- | --- | --- | --- |
| CN1CCCC(n2nc(Cc3ccc(Cl)cc3)c3ccccc3c2=O)CC1 (configuration not stated) [AZELASTINE] | 17.8 µM | 17.8 µM | 13.3 µM | 13.2 µM | > 100 µM | > 100 µM |
| CCOC1O[C@H]([C@@H](COCc2ccccc2)OCc2ccccc2)[C@H](OCc2ccccc2)[C@H]1O (some centres not stated) [TRIBENOSIDE] | 17.4 µM | 17.4 µM | > 50.1 µM | > 50.1 µM | > 50.1 µM | > 50.1 µM |
| CCC(C)n1ncn(-c2ccc(N3CCN(c4ccc(OC[C@H]5CO[C@](Cn6cncn6)(c6ccc(F)cc6F)O5)cc4)CC3)cc2)c1=O (some centres not stated) [SAPERCONAZOLE] | > 100 µM | > 100 µM | > 100 µM | > 100 µM | > 100 µM | > 100 µM |
| COc1cc2c(cc1OC)C(c1cccc(Cl)c1)=NN=C(C)C2 [GIRISOPAM] | > 100 µM | > 100 µM | > 100 µM | > 100 µM | > 100 µM | > 100 µM |
| CCCCCCC(C)(C)c1cc(O)c2c(c1)OC(C)(C)[C@@H]1CC=C(C(=O)O)C[C@@H]21 [LENABASUM] | ~21.4 µM | ~21.4 µM | > 100 µM | > 100 µM | > 100 µM | > 100 µM |
| OCc1cc(C(O)CNCCCCCCOCCCCc2ccccc2)ccc1O (configuration not stated) [SALMETEROL] | 18.6 µM | 18.6 µM | 19.1 µM | 19.1 µM | > 100 µM | > 100 µM |
| CC(C)[C@H](N/C(=N\S(=O)(=O)c1ccc(Cl)cc1)N1C[C@@H](c2ccccc2)C(c2ccc(Cl)cc2)=N1)C(N)=O | 16 µM | 15.8 µM | > 100 µM | > 100 µM | > 50.1 µM | > 50.1 µM |
| CCCC(C(=O)OCCN(CC)CC)(c1ccccc1)c1ccccc1 [PROADIFEN] | 24 µM | 24 µM | 5.13 µM | 5.13 µM | > 100 µM | > 100 µM |
| NC(=O)C1CN(CCCCC(c2ccc(F)cc2)c2ccc(F)cc2)CCN1CC(=O)Nc1c(Cl)cc(N)cc1Cl (configuration not stated) [DRAFLAZINE] | 9.66 µM | 9.55 µM | > 100 µM | > 100 µM | > 100 µM | > 100 µM |
| CN(C)C(=O)c1cc2cnc(Nc3ccc(N4CCNCC4)cn3)nc2n1C1CCCC1 [RIBOCICLIB] | 38.9 µM | 38.9 µM | > 100 µM | > 100 µM | > 100 µM | > 100 µM |
| CCN(CC)Cc1ccc2cc(COC(=O)Nc3ccc(C(=O)NO)cc3)ccc2c1 [GIVINOSTAT] | 0.767 µM | 0.759 µM | 10.5 µM | 10.5 µM | > 100 µM | > 100 µM |
| CC(=O)c1ccc2c(c1)N(CCCN1CCC(CCO)CC1)c1ccccc1S2 [PIPERACETAZINE] | 12.2 µM | 12 µM | 16.2 µM | 16.2 µM | > 12.6 µM | > 12.6 µM |
| CNCCC=C1c2ccccc2C=Cc2ccccc21 | 23.4 µM | 23.4 µM | > 50.1 µM | > 50.1 µM | > 50.1 µM | > 50.1 µM |
| CC(C)(C)c1ccc(C(O)CCCN2CCC(C(O)(c3ccccc3)c3ccccc3)CC2)cc1 (configuration not stated) [TERFENADINE] | ~5.13 µM | ~5.13 µM | > 100 µM | > 100 µM | > 100 µM | > 100 µM |
| NCC[C@H](Oc1ccc(C(F)(F)F)cc1)c1ccccc1 [SEPROXETINE] | 10.6 µM | 10.5 µM | 7.59 µM | 7.59 µM | > 100 µM | > 100 µM |
| CC(=O)N1CCN([C@H]2CCN(C(=O)N(C)[C@H](C)c3cc(C(F)(F)F)cc(C(F)(F)F)c3)[C@@H](c3ccc(F)cc3C)C2)CC1 [CASOPITANT] | 17.8 µM | 17.8 µM | > 25.1 µM | > 25.1 µM | > 25.1 µM | > 25.1 µM |
| OC1(c2ccc(Cl)c(C(F)(F)F)c2)CCN(CCCC(c2ccc(F)cc2)c2ccc(F)cc2)CC1 [PENFLURIDOL] | 3.59 µM | 3.55 µM | > 100 µM | > 100 µM | > 100 µM | > 100 µM |
| Cc1nc(Nc2ccc(F)cc2)nc(N2CCc3ccccc3C2C)c1C (configuration not stated) [REVAPRAZAN] | 11.5 µM | 11.5 µM | > 100 µM | > 100 µM | 10.5 µM | 10.5 µM |
